# Biological target: T1, Thromboxane-A synthase (Homo sapiens, UniProt P24557)
# T1 sequence (P24557 whole entry): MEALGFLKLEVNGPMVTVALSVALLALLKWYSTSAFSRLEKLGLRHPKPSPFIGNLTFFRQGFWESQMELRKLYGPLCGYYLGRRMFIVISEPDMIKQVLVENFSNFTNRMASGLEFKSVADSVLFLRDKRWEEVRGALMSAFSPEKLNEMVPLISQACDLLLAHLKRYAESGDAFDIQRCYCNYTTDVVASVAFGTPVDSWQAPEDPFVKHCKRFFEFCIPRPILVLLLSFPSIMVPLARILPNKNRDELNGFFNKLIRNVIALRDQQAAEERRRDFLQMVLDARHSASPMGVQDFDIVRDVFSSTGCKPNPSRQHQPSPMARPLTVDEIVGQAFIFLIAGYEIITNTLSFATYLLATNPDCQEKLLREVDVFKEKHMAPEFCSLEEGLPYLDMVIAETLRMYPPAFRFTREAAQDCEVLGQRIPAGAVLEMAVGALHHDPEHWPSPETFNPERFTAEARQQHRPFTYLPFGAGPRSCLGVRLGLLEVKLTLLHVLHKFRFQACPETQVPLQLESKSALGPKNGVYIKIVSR
# Experiment: In vitro inhibition of thromboxane synthase; call rule not given here
row,Compound,IC50 [nM]
1,O=C(O)CC/C=C\CC[C@H]1[C@@H](OCc2ccc(-c3ccccc3)cc2)CS(=O)(=O)[C@@H]1c1cccnc1,> 200
2,O=C(O)CC/C=C\CC[C@@H]1[C@@H](c2cccnc2)S(=O)(=O)C[C@H]1OCc1ccc(-c2ccccc2)cc1,> 200
3,O=C(O)CC/C=C\CC[C@H]1[C@@H](OCc2ccc(-c3ccccc3)cc2)CS[C@@H]1c1cccnc1,11
4,O=C(O)CCC/C=C\C[C@@H]1[C@@H](c2cccnc2)SC[C@H]1OCc1ccc(-c2ccccc2)cc1,43
5,O=C(O)CC/C=C\CC[C@@H]1[C@@H](c2cccnc2)SC[C@H]1OCc1ccc(-c2ccccc2)cc1 (stereo in doubt; (+)),18
6,O=C(O)CCCCCc1cccc2cncn12 [PIRMAGREL],3

# Continued, values first:
row,IC50 [nM],Compound
1,> 200,O=C(O)CC/C=C\CC[C@@H]1[C@@H](c2cccnc2)[S@+]([O-])C[C@H]1OCc1ccc(-c2ccccc2)cc1
2,> 200,O=C(O)CC/C=C\CC[C@@H]1[C@@H](c2cccnc2)[S@@+]([O-])C[C@H]1OCc1ccc(-c2ccccc2)cc1
3,> 100,O=C(O)CC/C=C\CC[C@H]1[C@@H](OCc2ccc(-c3ccccc3)cc2)C[S+]([O-])[C@@H]1c1cccnc1 (some centres not stated)
4,13,O=C(O)CC/C=C\CC[C@@H]1[C@@H](c2cccnc2)SC[C@H]1OCc1ccc(-c2ccccc2)cc1 (stereo in doubt; (-))
5,10,O=C(O)CC/C=C\CC[C@@H]1[C@@H](c2cccnc2)SC[C@H]1OCc1ccc(-c2ccccc2)cc1 (stereo in doubt; 1)

# Biological target: T2, Thromboxane A2 receptor (Homo sapiens, UniProt P21731)
# T2 sequence (P21731 whole entry): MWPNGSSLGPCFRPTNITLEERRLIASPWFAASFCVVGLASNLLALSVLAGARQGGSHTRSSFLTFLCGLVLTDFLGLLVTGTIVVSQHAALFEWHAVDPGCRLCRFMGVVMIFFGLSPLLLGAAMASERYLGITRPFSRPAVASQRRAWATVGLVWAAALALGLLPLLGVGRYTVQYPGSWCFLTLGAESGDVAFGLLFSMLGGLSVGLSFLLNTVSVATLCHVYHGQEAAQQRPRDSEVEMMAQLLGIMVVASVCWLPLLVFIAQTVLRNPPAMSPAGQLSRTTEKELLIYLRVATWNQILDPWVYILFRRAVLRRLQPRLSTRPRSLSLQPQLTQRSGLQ
# Experiment: In vitro thromboxane receptor antagonist activity was determined by inhibition of U-46619 induced aggregation of washed human platelets
# Format: functional
row,IC50,Compound
1,Not Active,O=C(O)CCCCCc1cccc2cncn12 [PIRMAGREL]

# — ChEMBL document CHEMBL1127959, “Thia-prostanoid analogs with combined thromboxane receptor antagonist/thromboxane synthase inhibitor activities. Synthesis and pharmacological evaluation” (Bioorg Med Chem Lett, 1994)
